Where no end group is shown, it is not given here.
Experiments:
Assay type in all cases: in vivo, rat
[1] = tested on: Wistar rats; assay: light/dark box test; settings: for time spent in the aversive non-familiar compartment, carrier compared with treated animals: 10 min observation, p<0.05
Description: The light/dark tests are based on the innate aversion of rodents for intensively illuminated environments and on their spontaneous exploratory behavior in response to slight stress factors such as a new environment and light. The device of the light/dark box allows the study of the exploratory behavior of the rodent towards a non-familiar aversive compartment (intensively illuminated with white light) after habituation in a non-aversive compartment (dark) which then becomes familiar [BOURIN and HASCOËT, 2008 (18)]. Conventional anxiolytics may be detected by using this device.
The light/dark box measures 65×49×35 cm (h×w×l) and is separated into two identical compartments by a plate perforated with three doors of 8×8 cm. The floor is covered with sawdust. Each rat is placed for 24 h in the rear compartment of the box, the doors for communicating with the front compartment being inaccessible. The rear compartment thus becomes the familiar compartment. The animal is fed and hydrated ad libitum. On the day of the test, the rat after treatment is replaced in the familiar compartment and the doors communicating with the front compartment (non-familiar) are made accessible so that the animal may freely explore the environment. The non-familiar compartment is made aversive by white light illumination with an intensity of 1,500 lux. The animals are observed for 10 min and the time spent in each of the compartments is measured.
The animals receive their respective treatment via an intra-peritoneal route, half an hour before opening the communication between the familiar compartment and the non-familiar compartment.

[2] = tested on: Wistar rats; assay: elevated plus maze test; settings: for number of entries in the open arms, carrier compared with treated animals / percentage of entries into the open arms, carrier compared with treated animals / time spent in the open arms, carrier compared with treated animals: p<0.05
Description: The elevated plus maze test allows the measurement of the density of exploratory behaviour in a new aversive situation [PELLOW et al., 1985 (17)]. The experiment exploits the conflict in rodents, between the fear of open spaces and the desire of exploring a new environment. The rat, placed at the centre of the device is forced to explore its environment. The open arms form an anxiogenic environment, whereas this is not the case of the closed arms. The number of entries in the whole of the arms, that relating to the open arms, the closed arms, the time spent in the open arms, the entry latency in the first open arm, form parameters which reflect the degree of anxiety of the animal.
The elevated plus maze built in wood consists of four branches at 90° from each other. The two open branches (45×10 cm) and the two closed branches (45×10 cm; surrounded with wooden plates over a height of 40 cm) are positioned facing each other. The central square measures 10×10 cm. The open branches are illuminated by white light with an intensity of 500 lux. The elevated plus maze is located at 50 cm from the ground.
The observations take place between 9.0 am and 11.0 am in order to minimize the influence of the circadian rhythm. […] each passage in the elevated plus maze, the animal is placed for 10 min in an open field in order to stimulate its exploratory behavior. It is then placed in the central square of the elevated plus maze and observed for 5 min. The plus maze is washed with 95% (v/v) ethanol between two passages in order to eliminate the odors.
The animals receive their respective treatment via an intra-peritoneal route, half an hour before passing into the open field.

[3] = tested on: Wistar rats; assay: conditioned defensive burial test
Description: The conditioned defensive burial test was used for measuring the anxiety level in rats. Developed by PINEL and TREIT (16), this test is based on the innate tendency of rodents, placed in a familiar environment of burying any object perceived as being dangerous by projecting on the latter the litter present at ground level. The expression of the burial behavior by the animal is representative of its anxiety level: more it is anxious, more it buries.
The test takes place in a Plexiglas box (44×28×18 cm), one of the walls of which has an orifice through which an electrode (7×2×0.5 cm) may be inserted. The bottom of the box is covered with a thick layer of sawdust (5 cm). The electrode is connected to a generator delivering a 1 mA intensity current when it is actuated by the experimenter. The whole of the experimentation is carried out in low intensity light.
The experiment consists of habituation phase of 2 days followed by a test phase. During the habituation phase, the rats are placed 20 min daily in the test box, without the electrode, in order to accustom them to the experimental device. During the test phase, each rat is individually placed in the box which contains the electrode. When the animal touches the electrode in the first time, it receives a single shock. From this instant, its behavior is filmed for 5 min and behavioral variables are quantified.
The total burial time and the occurrence latency of the burial behavior after the shock are the most significant variables. A certain number of behaviors oriented towards the electrode and correlated with the anxiety level of the rat (approaches, escapes, contacts) are also counted. Finally, indicators of the activity level of the rat such as the number of upright standing postures are reported.
The animals receive their respective treatments, via an intra-peritoneal route, half an hour before passing into the conditioned defensive burial test.

[4] = diazepam 1 mg/kg intra-peritoneal
[5] = fragment 0.7 mg/kg vs diazepam 1 mg/kg intra-peritoneal
[6] = fragment 91-97 0.7 mg/kg intra-peritoneal

CN1C(=O)CN=C(c2ccccc2)c2cc(Cl)ccc21 [diazepam, reference compound]
time spent in the aversive non-familiar compartment, carrier compared with treated animals [1, 4]: significantly less | number of entries in the open arms, carrier compared with treated animals [2, 4]: significantly less | percentage of entries into the open arms, carrier compared with treated animals [2, 4]: significantly less | time spent in the open arms, carrier compared with treated animals [2, 4]: significantly less

YLGYLEQ [fragment 91-97 of αs1 casein, Heptapeptide corresponding to the positions 91-97 of αs1 casein]
time spent in the non-familiar compartment, fragment 91-97 compared with diazepam [1, 5]: No significant difference | time spent in the aversive non-familiar compartment, carrier compared with treated animals [1, 6]: significantly less | anxiolytic action in conditioned defensive burial ([3]; 0.5 mg/kg intra-peritoneal): has an anxiolytic action in Wistar rats which acts in the same direction as that of diazepam | burial duration of an aversive probe after a single 1 mA shock, NaCl 0.9% control compared with treated animals ([3]; 0.5 mg/kg intra-peritoneal, half an hour before test, Mann-Whitney: diazepam p<0.02, fragment 91-97 p<0.04, 5 min observation): significantly larger | burial duration, fragment 91-97 compared with diazepam ([3]; both 0.5 mg/kg intra-peritoneal): No significant difference | elevated plus maze open-arm parameters, fragment 91-97 compared with diazepam [2, 5]: No significant difference | number of entries in the open arms, carrier compared with treated animals [2, 6]: significantly less | percentage of entries into the open arms, carrier compared with treated animals [2, 6]: significantly less | time spent in the open arms, carrier compared with treated animals [2, 6]: significantly less

Reference: patent US8685933B2, “Casein-derived peptides having anxiolytic activity” (Universite de Lorraine, priority 2006, dated 2014)
